# Entries after “also recorded” stand apart in the source; their conditions may differ.
# Test system: atherosclerotic plaque of an atherosclerotic cadaveric superficial femoral artery
# Experiment: ex vivo dissolution of atherosclerotic plaque in cadaveric superficial femoral artery
# Set-up: species or system human
# Settings: for dissolution of atherosclerotic plaque: exposure about ten minutes to about thirty minutes
# [1] = about 98% by weight in the chemical composition, about 2% base composition
# [2] = about 90% by weight, about 10% base composition
# [3] = about 2.5% by weight, about 97% base composition
# [4] = about 20% by weight, about 80% base composition such as normal saline
# [5] = about 99.9% by weight in the chemical composition, about 0.1% base composition
molecule,measurement,setting,value
2-octane [Example 2-octane],dissolution of atherosclerotic plaque,[1],showed effectiveness in dissolving atherosclerotic plaque; also recorded: dissolution of atherosclerotic plaque was noted
CC(=O)O [acetic acid],dissolution of atherosclerotic plaque,"about 50% by weight, about 50% base composition",dissolution of atherosclerotic plaque was noted
"CC(=O)Oc1ccccc1C(=O)O [acetylsalicylic acid, reference compound]",dissolution of atherosclerotic plaque,"about 12% by weight in the chemical composition, about 88% base composition",showed effectiveness in dissolving atherosclerotic plaque; also recorded: dissolution of atherosclerotic plaque was noted
S=C=S [carbon disulfide],dissolution of atherosclerotic plaque,[2],showed effectiveness in dissolving atherosclerotic plaque; also recorded: dissolution of atherosclerotic plaque was noted
ClC(Cl)Cl [chloroform],dissolution of atherosclerotic plaque,"about 95% by weight, about 5% base composition",showed effectiveness in dissolving atherosclerotic plaque; also recorded: dissolution of atherosclerotic plaque was noted
Oc1ccc(/C=C\c2cc(O)cc(O)c2)cc1 [cis-resveratrol],dissolution of atherosclerotic plaque,[3],dissolution of atherosclerotic plaque was noted
C=C(C)[C@H]1CC=C(C)CC1 [d-limonene],dissolution of atherosclerotic plaque,[1],showed effectiveness in dissolving atherosclerotic plaque; also recorded: dissolution of atherosclerotic plaque was noted
ClCCl [dichloromethane],dissolution of atherosclerotic plaque,"about 92% by weight, about 8% base composition",showed effectiveness in dissolving atherosclerotic plaque
same,dissolution of atherosclerotic plaque,"about 99.1% by weight, about 0.9% base composition",dissolution of atherosclerotic plaque was noted
CCO [ethanol],dissolution of atherosclerotic plaque,"about 94% by weight, about 6% base composition",dissolution of atherosclerotic plaque was noted
same,effectiveness in dissolving atherosclerotic plaque,concentration of about 94% to about 96%,showed effectiveness in dissolving atherosclerotic plaque
"O=C1[C@H](CC[C@H](O)c2ccc(F)cc2)[C@@H](c2ccc(O)cc2)N1c1ccc(F)cc1 [ezetimibe, reference compound]",dissolution of atherosclerotic plaque,[4],dissolution of atherosclerotic plaque was noted
O=C(O)[C@H](O)[C@@H](O)[C@H](O)[C@H](O)CO [gluconic acid],dissolution of atherosclerotic plaque,"about 80% by weight, about 20% base composition",dissolution of atherosclerotic plaque was noted
OCC(O)CO [glycerine],dissolution of atherosclerotic plaque,about 100% by weight in the chemical composition,showed effectiveness in dissolving atherosclerotic plaque; also recorded: dissolution of atherosclerotic plaque was noted
CC(O)C(=O)O (centres unmarked) [lactic acid],dissolution of atherosclerotic plaque,[1],dissolution of atherosclerotic plaque was noted
CCCCCCCCCCCC[N+](C)(C)CC(O)CS(=O)(=O)[O-] (centres unmarked) [lauryldimethyl hydroxysultaine],dissolution of atherosclerotic plaque,[2],dissolution of atherosclerotic plaque was noted
CO [methanol],dissolution of atherosclerotic plaque,[5],showed effectiveness in dissolving atherosclerotic plaque; also recorded: dissolution of atherosclerotic plaque was noted
CCCCCCCC(=O)O [octanoic acid],dissolution of atherosclerotic plaque,[1],showed effectiveness in dissolving atherosclerotic plaque; also recorded: dissolution of atherosclerotic plaque was noted
CC(O)CO (centres unmarked) [propylene glycol],dissolution of atherosclerotic plaque,[5],showed effectiveness in dissolving atherosclerotic plaque; also recorded: dissolution of atherosclerotic plaque was noted
"Oc1ccc(/C=C/c2cc(O)cc(O)c2)cc1 [resveratrol, 3,5,4′-trihydroxy-trans-stilbene]",effectiveness in dissolving atherosclerotic plaque,dissolved in water or an organic solvent in a concentration of about 0.1% to about 99.9%,showed effectiveness in dissolving atherosclerotic plaque
"CC(C)c1nc(N(C)S(C)(=O)=O)nc(-c2ccc(F)cc2)c1/C=C/[C@@H](O)C[C@@H](O)CC(=O)O [rosuvastatin, reference compound]",dissolution of atherosclerotic plaque,[4],dissolution of atherosclerotic plaque was noted
Cc1ccccc1 [toluene],dissolution of atherosclerotic plaque,"about 40% by weight, about 60% base composition",showed effectiveness in dissolving atherosclerotic plaque; also recorded: dissolution of atherosclerotic plaque was noted
Oc1ccc(/C=C/c2cc(O)cc(O)c2)cc1 [trans-resveratrol],dissolution of atherosclerotic plaque,[3],dissolution of atherosclerotic plaque was noted

# — patent US20110196383A1, “Atherosclerotic Plaque Dissolution Composition” (Atherolysis Medical, Inc, priority 2009, published 2011)
